Reference: patent US20140171404A1, “Autotaxin inhibitors” (NOVARTIS AG, priority 2012, published 2014)
Like-named read-outs stand apart in the source and are kept apart here.

Biological target: T1, Recombinant human ATX (Homo sapiens, UniProt Q13822)
T1 construct: made in house; host or cells: human embryonic kidney (HEK) cells
Assay: Assessing ATX inhibition: released choline, Amplex Red fluorescence
Assay type: biochemical
Settings: read-out: IC50
Method: LPC (oleoyl (18:1)) was purchased from Avanti Polar Lipids (Alabaster; AL) and solubilized in methanol to 20 mM. Amplex Red was obtained from Invitrogen Life Technologies (Paisley, UK) and dissolved in DMSO to 10 mM. Choline oxidase and horseradish peroxidase (HRP) were obtained from Sigma Aldrich (Dorset, UK) and dissolved in HBSS to 20 U/ml and 200 U/ml respectively. All reagents were stored at −20° C. in single use aliquots. All experimental measurements were performed in assay buffer made up immediately prior to use (HBSS, 0.01% BSA essentially fatty acid free).
Recombinant human ATX was prepared at Novartis (Basel, CH) in a human embryonic kidney (HEK) cell preparation, and stored in single use aliquots of […] (26 μM) stocks stored at −80° C.
All experimental measurements were performed in black 384 well polystyrene (low volume, round bottom, Corning (3676)) plates. PerkinElmer EnVision (Fluorescence Intensity/Absorbance Monochromator) or Tecan Infinite 200 PRO series plate reader was used to detect change in fluorescent intensity.
ATX activity was determined by measurement of released choline in reactions containing ATX (10 nM), choline oxidase (0.1 U/ml), HRP (100 U/ml), amplex red (50 μM) and LPC 18:1 (10 μM). Compounds of the invention were prepared as 10 point serial dilutions from 1 μM in duplicate and pre-incubated with ATX at 37° C. for 20 minutes prior to the addition of remaining reagents. The liberated choline was measured from changes in fluorescence intensity (λex 530 nm, λem 590 nm) of the product resurofin at 37° C. every 2 minutes over a 40-minute period. ATX activity was measured as a slope of the linear portion of the progress curve, typically between 14 to 24 minutes.
Slope data was exported to Graphpad prism (Graphpad software, San Diego, Calif.) where data was fitted to equation 1.
Y=Bottom+(Top−Bottom)/(1+10̂((Log IC50−X)*HillSlope)) Equation 1: […]

[1] = ATX 10 nM, LPC 18:1 10 μM, pre-incubated with ATX at 37° C. for 20 minutes, Table 1, exemplified compounds
[2] = same assay, compounds outside the scope of the invention

`O=C(NCCC1CCN(C(=O)/C=C/c2cc(Cl)cc(Cl)c2)CC1)c1c[nH]c(=O)o1` [Example 31, (E)-N-(2-(1-(3-(3,5-Dichlorophenyl)acryloyl)piperidin-4-yl)ethyl)-2-oxo-2,3-dihydrooxazole-5-carboxamide] showed an IC50 [1] of 387 nM.
For `COc1c(N(C)CCC2CCN(C(=O)OCc3cc(Cl)cc(Cl)c3)CC2)c(=O)c1=O` [Example 2], the IC50 [1] was 248 nM.
For `CN(CCC1CCN(C(=O)/C=C/c2cc(Cl)cc(Cl)c2)CC1)C(=O)c1c[nH]c(=O)o1` [Example 30, (E)-N-(2-(1-(3-(3,5-Dichlorophenyl)acryloyl)piperidin-4-yl)ethyl)-N-methyl-2-oxo-2,3-dihydrooxazole-5-carboxamide], the IC50 [1] was 274 nM.
`O=C(CCCc1c[nH]nn1)NC1CCCN(C(=O)OCc2cc(Cl)cc(Cl)c2)CC1` (stereo not drawn) [Example 46, 3,5-Dichlorobenzyl 4-(4-(1H-1,2,3-triazol-4-yl)butanamido)azepane-1-carboxylate] showed an IC50 [1] of 731 nM.
`O=C(NCCN1CCN(C(=O)OCc2cc(Cl)cc(Cl)c2)CC1)c1c[nH]c(=O)o1` [Example 27, 3,5-Dichlorobenzyl 4-(2-(2-oxo-2,3-dihydrooxazole-5-carboxamido)ethyl)piperazine-1-carboxylate] gave an IC50 [1] of 375 nM.
`CN(CCC1CCN(C(=O)OCc2cc(Cl)cc(Cl)c2)CC1)C(=O)c1cc(O)no1` [Example 1, 3,5-Dichlorobenzyl 4-(2-(3-hydroxy-N-methylisoxazole-5-carboxamido)ethyl) piperidine-1-carboxylate] gave an IC50 [1] of 644 nM.
`N#Cc1cc(COC(=O)N2CCC(NC(=O)CCCc3c[nH]nn3)CC2)cc(C(F)(F)F)c1` [Example 66, 3-Cyano-5-(trifluoromethyl)benzyl 4-(4-(1H-1,2,3-triazol-4-yl)butanamido)piperidine-1-carboxylate] gave an IC50 [1] of 4 nM.
`N#Cc1cc(Cl)cc(COC(=O)N2CCC(NCCCCc3c[nH]nn3)CC2)c1` [Example 75] was tested, and the IC50 [1] was 29 nM.
For `O=C(CCCc1c[nH]nn1)NC1CCN(C(=O)OCc2cc(Br)cc(C(F)(F)F)c2)CC1` [Example 63, 3-Bromo-5-(trifluoromethyl)benzyl 4-(4-(1H-1,2,3-triazol-4-yl)butanamido)piperidine-1-carboxylate], the IC50 [1] was 3 nM.
Compound `O=C(NCCC1CN(C(=O)OCc2cc(Cl)cc(Cl)c2)CCO1)c1c[nH]c(=O)o1` (stereo not drawn) [Example 12, 3,5-Dichlorobenzyl 2-(2-(2-oxo-2,3-dihydrooxazole-5-carboxamido)ethyl)morpholine-4-carboxylate] has an IC50 [1] of 520 nM.
For `Cc1cc(C#N)cc(COC(=O)N2CCC(NC(=O)CCCc3c[nH]nn3)CC2)c1` [Example 71, 3-Cyano-5-methylbenzyl 4-(4-(1H-1,2,3-triazol-4-yl)butanamido)piperidine-1-carboxylate], the IC50 [1] was 13 nM.
With `O=C(CCCc1c[nH]nn1)NC1CCN(C(=O)OCc2cc(F)cc(Cl)c2)CC1` [Example 37, 3-Chloro-5-fluorobenzyl 4-(4-(1H-1,2,3-triazol-4-yl)butanamido)piperidine-1-carboxylate] the IC50 [1] was 55 nM.
`O=C(CCCc1c[nH]c(=O)s1)NC1CCN(C(=O)OCc2cc(Cl)cc(Cl)c2)CC1` [Example 73, 3,5-Dichlorobenzyl 4-(4-(2-oxo-2,3-dihydrothiazol-5-yl)butanamido)piperidine-1-carboxylate] showed an IC50 [1] of 2 nM.
`O=C(CCCc1c[nH]nn1)NC1CCN(C(=O)/C=C/c2cc(Cl)cc(Cl)c2)CC1` [Example 38, (E)-N-(1-(3-(3,5-Dichlorophenyl)acryloyl)piperidin-4-yl)-4-(1H-1,2,3-triazol-4-yl)butanamide] gave an IC50 [1] of 21 nM.
Compound `O=C(NCCCN1CCN(C(=O)OCc2cc(Cl)cc(Cl)c2)CC1)c1c[nH]nn1` [Example 34, 3,5-Dichlorobenzyl 4-(3-(1H-1,2,3-triazole-4-carboxamido)propyl)piperazine-1-carboxylate] has an IC50 [1] of 282 nM.
`N#Cc1cc(Cl)cc(COC(=O)N2CCC(NC(=O)CCCc3c[nH]nn3)CC2)c1` [Example 44, 3-Chloro-5-cyanobenzyl 4-(4-(1H-1,2,3-triazol-4-yl)butanamido)piperidine-1-carboxylate] gave an IC50 [1] of 8 nM.
Compound `O=C(O)CCCCCCC(=O)NC1CCN(C(=O)OCc2cc(Cl)cc(Cl)c2)CC1` [Example 40, 8-((1-(((3,5-Dichlorobenzyl)oxy)carbonyl)piperidin-4-yl)amino)-8-oxooctanoic acid] has an IC50 [1] of 135 nM.
For `O=C(NCC1CCN(C(=O)OCc2cc(Cl)cc(Cl)c2)CC1)c1cc(O)no1` [reference compound], the IC50 [2] was over 1000 nM.
For `N#Cc1cc(Cl)cc(COC(=O)N2CCC(NC(=O)CCc3c[nH]nn3)CC2)c1` [Example 65, 3-Chloro-5-cyanobenzyl 4-(3-(1H-1,2,3-triazol-4-yl)propanamido)piperidine-1-carboxylate], the IC50 [1] was 26 nM.
`O=C(CCCc1c[nH]nn1)NC1CCN(C(=O)OCCc2cc(Cl)cc(Cl)c2)CC1` [Example 59, 3,5-Dichlorophenethyl 4-(4-(1H-1,2,3-triazol-4-yl)butanamido)piperidine-1-carboxylate] was tested, and the IC50 [1] was 24 nM.
For `O=C(CCCc1nnn[nH]1)NC1CCN(C(=O)OCc2cc(Cl)cc(Cl)c2)CC1` [Example 74, 3,5-Dichlorobenzyl 4-(4-(1H-tetrazol-5-yl)butanamido)piperidine-1-carboxylate], the IC50 [1] was 21 nM.
`O=C(CCCc1c[nH]nn1)NC1CC2CCC(C1)N2C(=O)OCc1cc(Cl)cc(Cl)c1` (stereo not drawn) [Example 45, 3,5-Dichlorobenzyl 3-(4-(1H-1,2,3-triazol-4-yl)butanamido)-8-azabicyclo[3.2.1]octane-8-carboxylate] gave an IC50 [1] of 555 nM.
Work on `O=C(CCCc1c[nH]nn1)NC1CCN(C(=O)OCc2ccccc2)CC1` [reference compound] yielded an IC50 [2] of 1390 nM.
`CN(CCC1CCN(C(=O)OCc2cc(Cl)cc(Cl)c2)CC1)C(=O)c1cc(O)[nH]n1` [Example 25, 3,5-Dichlorobenzyl 4-(2-(5-hydroxy-N-methyl-1H-pyrazole-3-carboxamido)ethyl)piperidine-1-carboxylate] was tested, and the IC50 [1] was 520 nM.
`O=C(CCCc1c[nH]nn1)NC1CCN(C(=O)CCc2cc(Cl)cc(Cl)c2)CC1` [Example 42, N-(1-(3-(3,5-Dichlorophenyl)propanoyl)piperidin-4-yl)-4-(1H-1,2,3-triazol-4-yl)butanamide] gave an IC50 [1] of 119 nM.
In the case of `CCOc1c(NCCC2CCN(C(=O)OCc3cc(Cl)cc(Cl)c3)CC2)c(=O)c1=O` [Example 3], the IC50 [1] is reported as 445 nM.
With `CN(CCC1CCN(C(=O)OCc2cc(Cl)cc(Cl)c2)CC1)C(=O)c1c[nH]nn1` [Example 35, 3,5-Dichlorobenzyl 4-(2-(N-methyl-1H-1,2,3-triazole-4-carboxamido)ethyl)piperidine-1-carboxylate] the IC50 [1] was 175 nM.
`CN(CCC1CCN(C(=O)OCc2cc(Cl)cc(Cl)c2)CC1)C(=O)Cc1c[nH]nn1` [Example 6, 3,5-Dichlorobenzyl 4-(2-(N-methyl-2-(1H-1,2,3-triazol-4-yl)acetamido)ethyl)piperidine-1-carboxylate] was tested, and the IC50 [1] was 62 nM.
In the case of `N#Cc1cc(COC(=O)N2CCC(NC(=O)CCCc3c[nH]nn3)CC2)cc(OC(F)(F)F)c1` [Example 70, 3-Cyano-5-(trifluoromethoxy)benzyl 4-(4-(1H-1,2,3-triazol-4-yl)butanamido)piperidine-1-carboxylate], the IC50 [1] is reported as 5 nM.
In the case of `O=C(CCCCCc1c[nH]nn1)NC1CCN(C(=O)OCc2cc(Cl)cc(Cl)c2)CC1` [Example 67, 3,5-Dichlorobenzyl 4-(6-(1H-1,2,3-triazol-4-yl)hexanamido)piperidine-1-carboxylate], the IC50 [1] is reported as 4 nM.
